Test results published in patent publication US3985774A, “Purification of γ-oxo-2-dibenzofuranbutyric acid” (American Home Products Corporation, priority 1972, dated 1976).

Columns and labels:
inflammatory conditions = test: antiinflammatory activity (pharmacologic testing); format: in vivo; details: for antiinflammatory properties / activity: in vivo
warm-blooded animals = test: toxicity / tolerance (acute toxicity tests and prolonged administration); details: in vivo
carragheenin paw edema = carragheenin paw edema test; format: in vivo, rat; details: rats; for % INHIBITION of edema / EDEMA (results expressed in grams of mercury displaced): 3 h after carragheenin
Description: A. Winter, et al., Proc. Soc. Exp. Biol., lll, 544 (1962). […] A. Winter in "Non-Steroidal Anti-inflammatory Drugs", S. Garattine and M. N. G. Dukes, Eds., Excerpta Medica International Congress, Ser. No. 82, 1965, p. 190.
More particularly exemplified a substantial effect for γ-oxo-2-dibenzofuranbutyric acid is demonstrable at oral doses of 200 mg/kg or less in this paw edema test. In this test rats are treated with the test compound one hour before a 1% suspension of carragheenin in saline is injected into the subplantar area of the hind paw of the rat. Results are obtained by measuring the increase in paw volume caused by the resulting edema three hours later by plethysmography in mercury and expressing values as grams of mercury displaced. Control animals receive the vehicle only. The results are expressed as percent inhibition in edematous swelling calculated as [formula] where Δ control is the increase in volume measured in untreated controls and Δ treated is the increase in volume found in the treated animals.
The following table lists the results obtained for both γ-oxo-2-dibenzofuranbutyric acid (l) and its isomer ll.

[1] = analgesic activity (standard pharmacologic test); details: in vivo
Text: (§1) The useful antiinflammatory, analgesic and antipyretic activities of the product of this invention is demonstrable in standard pharmacologic tests, for example, the test described by R. A. Turner in "Screening Method in Pharmacology", Academic Press, New York and London, 1965, pp. 152-163, pp. 100-117 and pp. 298-299, respectively.

[2] = antipyretic activity (standard pharmacologic test); details: in vivo
Text: as §1

gastrointestinal ulcers = test: ulcerogenic activity in a modification of a known method; format: in vivo; details: therapeutic dose levels
solubility in water = format: physicochemical

## O=C(O)CCC(=O)c1ccc2oc3ccccc3c2c1 [γ-oxo-2-dibenzofuranbutyric acid]
Inflammatory conditions; acid l versus isomer ll
  antiinflammatory activity compared with isomer ll: somewhat more active
  onset of action compared with isomer ll: quicker onset of action
Inflammatory conditions
  antiinflammatory properties / activity: important antiinflammatory properties
Inflammatory conditions; listed as acid l
  antiinflammatory properties / activity: have antiinflammatory activity
warm-blooded animals
  side effects: lack of side effects
  therapeutic index: highly favorable therapeutic index
  tolerance: exceptionally well tolerated
  toxicity: low order of toxicity
Carragheenin paw edema; Experiment A, 50 mg/kg, oral
  % INHIBITION of edema: 37%
  EDEMA (results expressed in grams of mercury displaced): 7.7 ± 0.88 grams of mercury displaced
Carragheenin paw edema; Experiment A, 100 mg/kg, oral
  % INHIBITION of edema: 54%
  EDEMA (results expressed in grams of mercury displaced): 5.7 ± 0.42 grams of mercury displaced
Carragheenin paw edema; Experiment A, 200 mg/kg, oral
  % INHIBITION of edema: 78%
  EDEMA (results expressed in grams of mercury displaced): 2.7 ± 0.36 grams of mercury displaced
Carragheenin paw edema; Experiment C, 100 mg/kg
  % INHIBITION of edema: 60%
  EDEMA (results expressed in grams of mercury displaced): 4.8 ± 0.46 grams of mercury displaced
Carragheenin paw edema; Rattus norvegicus, oral, read-out: oral dose at which a substantial effect is demonstrable
  minimal effective dose: ≤ 200 mg/kg
Carragheenin paw edema; paw edema test
  activity compared with isomer ll (Student's t test): significantly more active than the isomer ll
[1]
  analgesic activity: possesses analgesic and antipyretic activity
[2]
  antipyretic activity: possesses analgesic and antipyretic activity
Gastrointestinal ulcers
  formation of gastrointestinal ulcers: does not cause formation of gastrointestinal ulcers
Solubility in water
  solubility in water: only limited solubility in water

## O=C(O)CCC(=O)c1ccc2c(c1)oc1ccccc12 [γ-oxo-3-dibenzofuranbutyric acid]
Inflammatory conditions
  antiinflammatory properties / activity: have antiinflammatory activity
Carragheenin paw edema; Experiment B, 100 mg/kg
  % INHIBITION of edema: 5%
  EDEMA (results expressed in grams of mercury displaced): 13.6 ± 1.38 grams of mercury displaced
Carragheenin paw edema; Experiment B, 200 mg/kg
  % INHIBITION of edema: 34%
  EDEMA (results expressed in grams of mercury displaced): 9.5 ± 1.11 grams of mercury displaced
Carragheenin paw edema; Experiment B, 400 mg/kg
  % INHIBITION of edema: 28%
  EDEMA (results expressed in grams of mercury displaced): 10.3 ± 1.05 grams of mercury displaced
Carragheenin paw edema; Experiment C, 100 mg/kg
  % INHIBITION of edema: 18%
  EDEMA (results expressed in grams of mercury displaced): 9.9 ± 0.67 grams of mercury displaced
